Source: article PMC8003295, “The In Vitro Interaction of 12-Oxophytodienoic Acid and Related Conjugated Carbonyl Compounds with Thiol Antioxidants” (Biomolecules, 2021)

Legend:
[1] = molecular target: T1, Cyp20-3 (Arabidopsis thaliana, UniProt P34791, C248S); test: ITC (single-site fit, poor fit noted); assay type: binding
T1 construct: recombinant Cyp20-3 C171S variant, His6-tag not cleaved

[2] = molecular target: T2, Cyp20-3 (Arabidopsis thaliana, UniProt P34791); test: ITC (single-site fit, poor fit noted); intrinsic fluorescence quenching; PPIase activity; assay type: binding
T2 construct: recombinant Cyp20-3 WT, His6-tag not cleaved
T2 sequence (P34791 78-260): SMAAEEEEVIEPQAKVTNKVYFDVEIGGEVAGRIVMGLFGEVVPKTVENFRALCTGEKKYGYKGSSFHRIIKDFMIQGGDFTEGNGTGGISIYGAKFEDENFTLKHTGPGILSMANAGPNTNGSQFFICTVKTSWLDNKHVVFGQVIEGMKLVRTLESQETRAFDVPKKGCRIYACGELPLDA

[3] = molecular target: T3, Cyp20-3 (Arabidopsis thaliana, UniProt P34791, C206S); test: PPIase activity assay (chymotrypsin-coupled), […] 12-OPDA; assay type: biochemical
T3 construct: recombinant Cyp20-3 C129S variant, His6-tag not cleaved
T3 sequence (P34791 78-260 C206S): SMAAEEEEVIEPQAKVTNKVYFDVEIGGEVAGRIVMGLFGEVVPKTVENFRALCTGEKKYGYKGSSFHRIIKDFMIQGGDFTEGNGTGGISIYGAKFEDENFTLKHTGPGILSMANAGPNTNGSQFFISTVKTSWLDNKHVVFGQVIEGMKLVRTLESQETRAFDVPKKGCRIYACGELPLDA

T1 sequence (P34791 78-260 C248S): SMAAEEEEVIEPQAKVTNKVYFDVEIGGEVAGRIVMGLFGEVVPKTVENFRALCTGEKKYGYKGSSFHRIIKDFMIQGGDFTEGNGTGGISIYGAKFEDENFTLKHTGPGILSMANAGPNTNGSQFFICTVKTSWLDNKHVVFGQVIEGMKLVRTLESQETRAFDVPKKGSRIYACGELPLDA

SMILES: CC/C=C\C[C@@H]1C(=O)C=C[C@@H]1CCCCCCCC(=O)O [12-OPDA, 12-oxophytodienoic acid]
- Kd [1]: 26 ± 8 µM
- Kd [2]: 35.7 ± 9 µM
- PPIase activity assay (chymotrypsin-coupled), 26 μM 12-OPDA [3]: 12-OPDA stimulated the activity of oxidized Cyp20-3 WT and C129S to a similar extent
